Assay results from publication PMC4186430, “Modeling of age-dependent amyloid accumulation and γ-secretase inhibition of soluble and insoluble Aβ in a transgenic mouse model of amyloid deposition” (Pharmacology Research & Perspectives, 2013).

Tested on: soluble Aβ40 production
Test: PKPD turnover model of MRK-560 inhibition of soluble Aβ40 production (models A, B, C)
Format: in vivo, Tg2576 transgenic mice
Conditions: for IC50: Mus musculus
Method: In a second step, drug effect data were added to the AP analysis in order to develop an integrated PKPD model that incorporated both age-dependent AP and an age-dependent drug effect. To this end, the initially developed logistic model (eq. 3) was combined with a turnover model (Dayneka et al. [1993]; Jusko and Ko [1994]). This part of the analysis was only performed for soluble and insoluble Aβ40, as drug effect data for Aβ42 were not available from all studies. In this approach, the age-dependent AP causing an increase in soluble Aβ40 production (Kin,sol) was described following equations (4 and 5): [drawing 4] (4) [drawing 5] (5) in which Kin,sol and kout,sol corresponded to the production and loss of soluble Aβ40, respectively.
The inhibitory effect of MRK-560 on soluble Aβ40 was modeled using a turnover model (eq. 4), where the production of soluble Aβ40 was inhibited by the drug concentration. The model took into account the time delay between changes in plasma concentration of the drug and changes insoluble Aβ40 levels. Three types of drug effect models were evaluated: (A) absolute (eq. 6), (B) relative change from the baseline (eq. 7), and (C) modified relative change from the baseline (eq. 7). In model B the IC50(solAβ40) was constant, while in model C it was dependent on the soluble Aβ40 levels via a linear function as shown in equation (8).
Kin,sol corresponded to the age-dependent production of soluble Aβ40, kout,sol corresponded to the loss of soluble Aβ40, Imax was a maximum drug-induced soluble Aβ40 reduction (either absolute or relative reduction from the baseline for eqs. 6 and 7, respectively), CBr represented the brain concentrations, IC50 was a concentration which induced half of the maximum inhibition, while AP corresponded to the AP, described using equation (3). Additionally, parameter SL represented a slope of the linear relationship between absolute Aβ40 levels and IC50.
Changes in soluble Aβ40 were assumed to change the production of insoluble Aβ40. This effect was modeled using a turnover model and was described using equations (9–11): [drawing 9] (9) [drawing 10] (10) [drawing 11] (11) where Kin,insol was the production of insoluble Aβ40, which was dependent on the soluble Aβ40 levels, kout,insol was the loss of insoluble Aβ40, and SCALE was the scaling function between soluble and insoluble Aβ40 levels. Similar as in equation (3), α2 from equation (11) was the upper asymptote in the logistic function, ECi2 was a point of inflection and P2 was the slope parameter. A graphical representation of the PKPD model can be found in Figure 1.
All modeling analyses were performed in NONMEM (version 7.1.0, ICON Development Solutions, Ellicott City, MD [Schoemaker and Cohen [1996]]). The best models were chosen based on the analysis of their objective function, the precision of parameter estimates, and goodness-of-fit plots. The analysis of NONMEM output was performed using R software (R Development Core Team [2008]) and Xpose4 package (Jonsson and Karlsson [1998]). The 90% prediction intervals were calculated using the visual predictive check (VPC) as described by (Post et al. [2008]). In brief, 1000 simulations of the data were performed using final parameter estimates and 5th, 50th, and 95th percentiles were calculated.

[1] = model A (absolute drug effect), estimate (SE%)

O=S(=O)(NC1CCC(c2cc(F)ccc2F)(S(=O)(=O)c2ccc(Cl)cc2)CC1)C(F)(F)F (stereo not drawn) [MRK-560, N-[cis-4-[(4-chlorophenyl)-sulfonyl]-4-(2,5-difluorophenyl)cyclohexyl]-1,1,1-trifluoromethanesulfonamide]
IC50 [1]: 90 nM | IC50 (model B (relative drug effect, constant IC50), estimate (SE%)): 190 nM | IC50 (model C, 5-month-old Tg2576 mice, brain concentration): 110 nM | IC50 (model C, 25-month-old Tg2576 mice, brain concentration): 12000 nM | Imax (final model (model C)): 86% | Imax [1]: 59 (4) pg/mg | Imax (model B (relative drug effect), estimate (SE%)): 88 (10) %
